# Key:
# [1] = target: T1, human B2 receptor cloned and transfected in a stable manner into a CHO cell line (Homo sapiens, UniProt P30411); assay: Binding to the cloned human bradykinin B2 receptor (CHO cell line); conditions: affinity for cloned human B2 receptor stably transfected into CHO cells
# T1 construct: expressed in transfected cells
# T1 sequence (P30411 1-391): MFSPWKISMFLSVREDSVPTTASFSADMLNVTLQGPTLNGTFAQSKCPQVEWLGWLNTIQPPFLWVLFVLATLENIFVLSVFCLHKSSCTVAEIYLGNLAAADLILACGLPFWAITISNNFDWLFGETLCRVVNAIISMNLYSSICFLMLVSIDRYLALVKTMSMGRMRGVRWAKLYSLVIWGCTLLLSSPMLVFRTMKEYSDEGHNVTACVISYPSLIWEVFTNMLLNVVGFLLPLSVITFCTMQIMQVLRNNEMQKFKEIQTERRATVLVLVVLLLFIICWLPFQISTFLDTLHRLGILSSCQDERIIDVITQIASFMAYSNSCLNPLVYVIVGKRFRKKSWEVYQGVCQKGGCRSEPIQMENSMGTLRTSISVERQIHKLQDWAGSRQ
# [2] = target: T2, bradykinin B2 receptor (segments of human umbilical vein) (Homo sapiens, UniProt P30411); assay: B2 receptor-dependent contraction of human umbilical vein segments; assay type: cell-based; conditions: calculated from concentrations causing B2 receptor-dependent contraction of human umbilical vein; read-out: pD2 (converted)
# T2 construct: determination of a pD2 value on segments of human umbilical vein; from tissue; host or cells: segments of human umbilical vein
# T2 sequence (P30411 1-391): T1 sequence (P30411 1-391)
SMILES,Ki [1] [nM],EC50 [2] [nM]
"N=C(N)NCCC[C@@H](N)C(=O)N[C@@H](CCCNC(=N)N)C(=O)N1CCC[C@H]1C(=O)N1C[C@H](O)C[C@H]1C(=O)NCC(=O)N[C@@H](Cc1cccs1)C(=O)N[C@@H](CO)C(=O)N[C@@H]1CSc2ccccc2N(CC(=O)N[C@@H](CCCNC(=N)N)C(=O)O)C1=O [Ex. 1, H-D-Arg-Arg-Pro-4Hyp-Gly-Thi-Ser-DBT(H)-Arg-OH]",0.7,200
"N=C(N)NCCC[C@H](NC(=O)CN1C(=O)[C@H](NC(=O)[C@H](CO)NC(=O)[C@H](Cc2cccs2)NC(=O)CNC(=O)[C@@H]2C[C@@H](O)CN2C(=O)[C@@H]2CCCN2C(=O)[C@H](CCCNC(=N)N)NC(=O)[C@@H](N)CCCCN)CSc2ccccc21)C(=O)O [Ex. 2, H-Lys-Arg-Pro-4Hyp-Gly-Thi-Ser-DBT(H)-Arg-OH]",0.07,79.4
"N=C(N)NCCC[C@H](NC(=O)CN1C(=O)[C@H](NC(=O)[C@H](CO)NC(=O)[C@H](Cc2ccccc2)NC(=O)CNC(=O)[C@@H]2CCCN2C(=O)[C@@H]2CCCN2C(=O)[C@@H](N)CCCNC(=N)N)CSc2ccccc21)C(=O)O [Ex. 3, H-Arg-Pro-Pro-Gly-Phe-Ser-DBT(M)-Arg-OH]",12.9,–
"N=C(N)NCCC[C@@H](N)C(=O)N[C@@H](CCCNC(=N)N)C(=O)N1CCC[C@H]1C(=O)N1C[C@H](O)C[C@H]1C(=O)NCC(=O)N[C@@H](Cc1cccs1)C(=O)N[C@@H](CO)C(=O)N[C@@H]1COc2ccccc2N(CC(=O)N[C@@H](CCCNC(=N)N)C(=O)O)C1=O [Ex. 4, H-D-Arg-Arg-Pro-4Hyp-Gly-Thi-Ser-DBO(H)-Arg-OH]",2.5,7940
"Cc1ccc2c(c1)SC[C@@H](NC(=O)[C@H](CO)NC(=O)[C@H](Cc1cccs1)NC(=O)CNC(=O)[C@@H]1C[C@@H](O)CN1C(=O)[C@@H]1CCCN1C(=O)[C@H](CCCNC(=N)N)NC(=O)[C@H](N)CCCNC(=N)N)C(=O)N2CC(=O)N[C@@H](CCCNC(=N)N)C(=O)O [Ex. 5, H-D-Arg-Arg-Pro-4Hyp-Gly-Thi-Ser-DBT(CH3)-Arg-OH]",6,56.2

# Source: patent US6316413A (Fournier Industrie et Sante, priority 1996, dated 2001)
